In US20230159527A1, “COMPOUNDS AS BCL-2 INHIBITORS” (Fochon Pharmaceuticals, Ltd., priority 2020, published 2023) one finds IC50 data, which are given here for 14 compounds.

One assay relates to RS4;11 cells. Put plainly: Cell proliferation assay, RS4;11 cells (MTS, 72 h). Conditions: Homo sapiens, RS4;11 cell proliferation. It counts as cell-based. The protocol: MTS testing kit was purchased from Promega. The RPMI-1640, Fetal bovine serum and Penicillin-Streptomycin were purchased from Gibco. Dimethyl sulfoxide (DMSO) was purchased from Sigma.
To investigate whether a compound is able to inhibit the activity of Bcl-2 in cells, a mechanism-based assay using RS4;11 (ATCC® CRL-1873™) cell was developed. In this assay, inhibition of Bcl-2 was detected by the inhibition of RS4;11 cells proliferation. RS4;11 cells were cultured in culture flasks to 40-80% confluence in RPMI-1640 plus 10% fetal bovine serum. Cells were collected and plated onto 96-well plates at desired cell density (30000 cells/well). Plates were incubated overnight at 37° C., with 5% CO2 to adhere. Compounds were added to the plates, and the final compound concentrations were 10000, 3333, 1111, […], 41, 14, 4.6 and 1.5 nM. Plates plated with RS4;11 cells were placed at 37° C., with 5% CO2 for 72 h. 20 μl MTS/100 μl medium mixture solution were added to each well and incubate the plates for exactly 2 hours. The reaction was stopped by adding 25 μl 10% SDS per well. Measure absorbance at 490 nm and 650 nm (reference wavelength). IC50 was calculated using GraphPad Prism 5.0.

In the next assay the test system is DoHH2 cells. Put plainly: Cell proliferation assay, DoHH2 cells (MTS, 120 h). The class given is cell-based. The following applies: Homo sapiens, DOHH-2. Summed up: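 DoHH2 cells in RPMI-1640 with 10% FBS were plated at 5000/well and rested 4 h. They were then exposed to compound at nine final concentrations (10000 to 1.5 nM) for 120 h at 37 °C. Viability was read by MTS (2 h, A490) and IC50 derived by curve fitting.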

For `CC(C)c1ccccc1[C@H]1CCCN1C1CC2(CCN(c3ccc(C(=O)NS(=O)(=O)c4cc([N+](=O)[O-])c(NCC5CCOCC5)cn4)c(Oc4cnc5[nH]ccc5c4)c3)CC2)C1` [Example B-4b, (R)-2-((1H-pyrrolo[2,3-b]pyridin-5-yl)oxy)-4-(2-(2-(2-isopropylphenyl)pyrrolidin-1-yl)-7-azaspiro [3.5]nonan-7-yl)-N-((4-nitro-5-(((tetrahydro-2H-pyran-4-yl)methyl)amino)pyridin-2-yl)sulfonyl) benzamide], the IC50 in the assay with RS4;11 cells and in the assay with DoHH2 cells was at most 1 nM in each case. Turning to `CC(C)c1ccccc1C1CCCN1C1CC2(CCN(c3ccc(C(=O)NS(=O)(=O)c4cc([N+](=O)[O-])c5c(n4)OC[C@H](C4CC4)N5)c(Oc4cnc5[nH]ccc5c4)c3)CC2)C1` (single isomer, unassigned) [Example B-31a, 2-((1H-pyrrolo[2,3-b]pyridin-5-yl)oxy)-N-(((S)-2-cyclopropyl-8-nitro-2,3-dihydro-1H-pyrido[2,3-b] [1,4]oxazin-6-yl)sulfonyl)-4-(2-((R or S)-2-(2-isopropylphenyl)pyrrolidin-1-yl)-7-azaspiro[3.5]nonan-7-yl)benzamide], the IC50 with RS4;11 cells and in the assay with DoHH2 cells was at most 1 nM each time. Regarding `CCS(=O)(CC)=NC1CCC(CNc2ncc(S(=O)(=O)NC(=O)c3ccc(N4CCC5(CC4)CC(N4CCC[C@@H]4c4ccccc4C4CC4)C5)cc3Oc3cnc4[nH]ccc4c3)cc2[N+](=O)[O-])CC1` (stereo partly drawn) [Example A-2b, (R)-2-((1H-pyrrolo[2,3-b]pyridin-5-yl)oxy)-4-(2-(2-(2-cyclopropylphenyl)pyrrolidin-1-yl)-7-azaspiro[3.5]nonan-7-yl)-N-((6-(((4-((diethyl(oxo)-λ^6-sulfanylidene)amino)cyclohexyl)methyl)amino)-5-nitropyridin-3-yl)sulfonyl)benzamide], the IC50 with RS4;11 cells and in the assay on DoHH2 cells was at most 1 nM each time.

As to `CC(C)c1ccccc1[C@@H]1COCCN1C1CC2(CCN(c3ccc(C(=O)NS(=O)(=O)c4cc([N+](=O)[O-])c5c(n4)OC[C@H]([C@H]4CC[C@](C)(O)CC4)N5)c(Oc4cnc5[nH]ccc5c4)c3)CC2)C1` (single isomer, unassigned) [Example B-47, 2-((1H-pyrrolo[2,3-b]pyridin-5-yl)oxy)-N-(((S)-2-((1r,4S)-4-hydroxy-4-methylcyclohexyl)-8-nitro-2,3-dihydro-1H-pyrido[2,3-b][1,4]oxazin-6-yl)sulfonyl)-4-(2-((R or S)-3-(2-isopropylphenyl)morpholino)-7-azaspiro[3.5]nonan-7-yl) benzamide], the IC50 with RS4;11 cells and with DoHH2 cells was at most 1 nM each time. With `CC(C)c1ccccc1[C@H]1CCCN1C1CC2(CCN(c3ccc(C(=O)NS(=O)(=O)c4cc([N+](=O)[O-])c5c(n4)OC[C@H](Cc4ccccc4)N5)c(Oc4cnc5[nH]ccc5c4)c3)CC2)C1` [Example B-3b, 2-((1H-pyrrolo[2,3-b]pyridin-5-yl)oxy)-N-(((S)-2-benzyl-8-nitro-2,3-dihydro-1H-pyrido[2,3-b][1,4]oxazin-6-yl)sulfonyl)-4-(2-((R)-2-(2-isopropylphenyl)pyrrolidin-1-yl)-7-azaspiro[3.5]nonan-7-yl) benzamide], the half-inhibitory concentration (IC50) with RS4;11 cells and in the assay with DoHH2 cells was at most 1 nM throughout. As for `CC(C)c1ccccc1C1CCCN1C1CC2(CCN(c3ccc(C(=O)NS(=O)(=O)c4cc([N+](=O)[O-])c5c(n4)OC[C@H](C4CCOCC4)N5)c(Oc4cnc5[nH]ccc5c4)c3)CC2)C1` (single isomer, unassigned) [Example B-33, 2-((1H-pyrrolo[2,3-b]pyridin-5-yl)oxy)-4-(2-((R or S)-2-(2-isopropylphenyl)pyrrolidin-1-yl)-7-azaspiro[3.5]nonan-7-yl)-N-(((S)-8-nitro-2-(tetrahydro-2H-pyran-4-yl)-2,3-dihydro-1H-pyrido[2,3-b][1,4]oxazin-6-yl)sulfonyl)benzamide], the IC50 in the assay with RS4;11 cells and with DoHH2 cells was at most 1 nM throughout.

Consider `O=C(NS(=O)(=O)c1cnc(NCC2(F)CCOCC2)c([N+](=O)[O-])c1)c1ccc(N2CCC3(CC2)CC(N2CCC[C@@H]2c2ccccc2C2CC2)C3)cc1Oc1cnc2[nH]ccc2c1` [Example A-32b, (R)-2-((1H-pyrrolo[2,3-b]pyridin-5-yl)oxy)-4-(2-(2-(2-cyclopropyl-phenyl)pyrrolidin-1-yl)-7-azaspiro [3.5]nonan-7-yl)-N-((6-(((4-fluoro-tetrahydro-2H-pyran-4-yl)methyl)amino)-5-nitropyridin-3-yl)sulfonyl)benzamide], for which the IC50 in the assay with RS4;11 cells and in the assay with DoHH2 cells was at most 1 nM each time. Turning to `O=C(NS(=O)(=O)c1cc([N+](=O)[O-])c(NCC2CCOCC2)cn1)c1ccc(N2CCC3(CC2)CC(N2CCC[C@@H]2c2ccccc2C2CC2)C3)cc1Oc1cnc2[nH]ccc2c1` [Example B-1b, (R)-2-((1H-pyrrolo[2,3-b]pyridin-5-yl)oxy)-4-(2-(2-(2-cyclopropylphenyl)pyrrolidin-1-yl)-7-azaspiro[3.5]nonan-7-yl)-N-((4-nitro-5-(((tetrahydro-2H-pyran-4-yl)methyl)amino)pyridin-2-yl)sulfonyl)benzamide], the IC50 with RS4;11 cells and in the assay on DoHH2 cells was at most 1 nM each time. Consider `CC(C)c1ccccc1[C@@H]1CCCN1C1CC2(CCN(c3ccc(C(=O)NS(=O)(=O)c4cnc(NCC5C6COCC56)c([N+](=O)[O-])c4)c(Oc4cnc5[nH]ccc5c4)c3)CC2)C1` (stereo in doubt) [Example A-27a, 2-((1H-pyrrolo[2,3-b]pyridin-5-yl)oxy)-N-((6-(((3-oxabicyclo[3.1.0]hexan-6-yl)methyl)amino)-5-nitro-pyridin-3-yl)sulfonyl)-4-(2-((5)-2-(2-isopropylphenyl)pyrrolidin-1-yl)-7-azaspiro[3.5]nonan-7-yl) benzamide], for which, in the assay on RS4;11 cells, the IC50 was at most 1 nM. Still for that read-out and setting: to `CS(C)(=O)=NC1CCC(CNc2ncc(S(=O)(=O)NC(=O)c3ccc(N4CCC5(CC4)CC(N4CCC[C@@H]4c4ccccc4C4CC4)C5)cc3Oc3cnc4[nH]ccc4c3)cc2[N+](=O)[O-])CC1` (single isomer, unassigned) [Example A-9b, (R or S)-2-((1H-pyrrolo[2,3-b]pyridin-5-yl)oxy)-4-(2-(2-(2-cyclopropyl-phenyl)pyrrolidin-1-yl)-7-azaspiro [3.5]nonan-7-yl)-N-((6-(((4-((dimethyl(oxo)-λ^6-sulfanylidene)amino)cyclohexyl)methyl)amino)-5-nitropyridin-3-yl)sulfonyl)benzamide] belongs at most 1 nM; to `O=C(NS(=O)(=O)c1cnc(NCC2C3COCC23)c([N+](=O)[O-])c1)c1ccc(N2CCC3(CC2)CC(N2CCC[C@H]2c2ccccc2C2CC2)C3)cc1Oc1cnc2[nH]ccc2c1` (stereo partly shown) [Example A-30a, 2-((1H-pyrrolo[2,3-b]pyridin-5-yl)oxy)-N-((6-(((3-oxabicyclo[3.1.0]hexan-6-yl)methyl)amino)-5-nitro-pyridin-3-yl)sulfonyl)-4-(2-((5)-2-(2-cyclopropylphenyl)pyrrolidin-1-yl)-7-azaspiro[3.5]nonan-7-yl) benzamide], at most 1 nM. The compound `O=C(NS(=O)(=O)c1cnc(NCC2CCSCC2)c([N+](=O)[O-])c1)c1ccc(N2CCC3(CC2)CC(N2CCOC[C@H]2c2ccccc2C2CC2)C3)cc1Oc1cnc2[nH]ccc2c1` (single isomer, unassigned) [Example A-98, (R or S)-2-((1H-pyrrolo[2,3-b]pyridin-5-yl)oxy)-4-(2-(3-(2-cyclopropyl-phenyl)morpholino)-7-azaspiro[3.5]nonan-7-yl)-N-((5-nitro-6-(((tetra-hydro-2H-thiopyran-4-yl)methyl)amino)pyridin-3-yl)sulfonyl) benzamide] displayed an IC50 in the assay on RS4;11 cells of at most 1 nM. On the same count and under the same terms, as for `CC(C)c1ccccc1[C@@H]1CCCN1C1CC2(CCN(c3ccc(C(=O)NS(=O)(=O)c4cnc(NCC5CCC(C)(O)CC5)c([N+](=O)[O-])c4)c(Oc4cnc5[nH]ccc5c4)c3)CC2)C1` (stereo partly shown) [Example A-6a, (5)-2-((1H-pyrrolo[2,3-b]pyridin-5-yl)oxy)-N-((6-(((4-hydroxy-4-methylcyclohexyl)methyl)amino)-5-nitropyridin-3-yl)sulfonyl)-4-(2-(2-(2-isopropylphenyl)pyrrolidin-1-yl)-7-azaspiro[3.5]nonan-7-yl) benzamide], the figure is at most 1 nM; as for `O=C(NS(=O)(=O)c1cnc(NCC2CCOCC2)c([N+](=O)[O-])c1)c1ccc(N2CCC3(CC2)CC(N2CCNC[C@H]2c2ccccc2C2CC2)C3)cc1Oc1cnc2[nH]ccc2c1` (single isomer, unassigned) [Example A-36a, (R or S)-2-((1H-pyrrolo[2,3-b]pyridin-5-yl)oxy)-4-(2-(2-(2-cyclopropyl-phenyl)piperazin-1-yl)-7-azaspiro [3.5]nonan-7-yl)-N-((5-nitro-6-(((tetrahydro-2H-pyran-4-yl)methyl)amino)pyridin-3-yl)sulfonyl) benzamide], at most 1 nM.
